Data from the NIST ThermoML archive (doi:10.1021/acs.jced.5b00256).

What was measured:
[1] = relative permittivity at various frequencies (dimensionless); xn = mol fraction of the nth substance listed; settings: 100 kPa, Liquid, Frequency=2 MHz, Parallel plate capacitor
[2] = refractive index (Na D-line) (dimensionless); xn = mol fraction of the nth substance listed; settings: 100 kPa, Liquid, Standard Abbe refractometry

COc1cccc(Br)c1 [1-bromo-3-methoxybenzene] + CCCO
Settings	refractive index, 303.15 K	refractive index, 313.15 K	refractive index, 323.15 K	refractive index, 333.15 K	relative permittivity, 303.15 K	relative permittivity, 313.15 K	relative permittivity, 323.15 K	relative permittivity, 333.15 K
[1], x2 = 0	–	–	–	–	7.01	6.85	6.74	6.6
[1], x2 = 0.107	–	–	–	–	7.18	7.03	6.89	6.7
[1], x2 = 0.206	–	–	–	–	7.55	7.39	7.15	6.95
[1], x2 = 0.296	–	–	–	–	8.05	7.83	7.55	7.23
[1], x2 = 0.38	–	–	–	–	8.67	8.39	8.08	7.65
[1], x2 = 0.457	–	–	–	–	9.46	9.11	8.68	8.2
[1], x2 = 0.529	–	–	–	–	10.27	9.87	9.4	8.74
[1], x2 = 0.596	–	–	–	–	11.08	10.61	10.11	9.38
[1], x2 = 0.658	–	–	–	–	12.04	11.56	10.94	10.15
[1], x2 = 0.716	–	–	–	–	12.93	12.39	11.71	10.89
[1], x2 = 0.771	–	–	–	–	13.98	13.42	12.88	11.8
[1], x2 = 0.822	–	–	–	–	15.14	14.52	13.63	12.43
[1], x2 = 0.871	–	–	–	–	16.23	15.6	14.65	13.33
[1], x2 = 0.916	–	–	–	–	17.33	16.62	15.64	14.3
[1], x2 = 0.959	–	–	–	–	18.58	17.66	16.7	15.22
[2], x2 = 0	1.56	1.558	1.553	1.55	–	–	–	–
[2], x2 = 0.107	1.555	1.552	1.548	1.546	–	–	–	–
[2], x2 = 0.206	1.544	1.54	1.535	1.532	–	–	–	–
[2], x2 = 0.296	1.53	1.528	1.523	1.519	–	–	–	–
[2], x2 = 0.38	1.517	1.515	1.512	1.508	–	–	–	–
[2], x2 = 0.457	1.504	1.501	1.5	1.497	–	–	–	–
[2], x2 = 0.529	1.493	1.489	1.488	1.484	–	–	–	–
[2], x2 = 0.596	1.484	1.482	1.477	1.474	–	–	–	–
[2], x2 = 0.658	1.473	1.468	1.464	1.461	–	–	–	–
[2], x2 = 0.716	1.461	1.458	1.449	1.447	–	–	–	–
[2], x2 = 0.771	1.447	1.444	1.437	1.435	–	–	–	–
[2], x2 = 0.822	1.435	1.429	1.425	1.423	–	–	–	–
[2], x2 = 0.871	1.421	1.418	1.413	1.41	–	–	–	–
[2], x2 = 0.916	1.41	1.405	1.401	1.398	–	–	–	–
[2], x2 = 0.959	1.396	1.392	1.388	1.385	–	–	–	–
